# US20250314636A1, “METHOD OF PREPARING AND EXPANDING A POPULATION OF IMMUNE CELLS FOR CANCER THERAPY, POTENCY ASSAY FOR TUMOR RECOGNITION, BIOLOGICAL VACCINE PREPARATION AND EPITOPETARGET FOR ANTIBODIES” (FUNDAÇÃO D. ANNA DE SOMMER CHAMPALIMAUD E DR. CARLOS MONTEZ …, priority 2022, published 2025)
# Read-outs that look alike come from different tables or passages of the source.
# How the values were obtained:
# PANC-1 = test: Cellular recognition assay: allogeneic tumor cell line PANC-1; assay type: cell-based, human; conditions: CD1d restricted IFN-γ production
# Method: All antibodies are commercially available.
# siRNA against MR1 was used to silence MR1 expression using Silencer Select Pre-designed siRNA (Ambion, Thermo Fisher)). A scramble siRNA was used as negative control (Ambion, Thermo Fisher). Briefly, target cells were seeded 24 h before transfection, both siRNAs were used at 10 μM with lipofectamine RNA iMAX diluted in OptiMEM, incubated for 5 minutes, and added on top of the cells. Cells were incubated for 48 h before being used on the respective assays.
# Autologous tumor, confirmed by standard histology, was viably snap frozen and then thawed to be used as targets in recognition assays once TIL had been expanded. Small autologous tumor pieces (1 mm^3) from tumor areas that contained tumor cells were tested in duplicates. TIL were incubated with tumor pieces or allogeneic tumor cells in CellGenix GMP DC media supplemented with 10% serum in the presence of IL-2 (50 IU/mL) and IL-15 (10 IU/mL) for testing MAIT—cells. TCR αβ T-cells or TCR γδ cells were tested for autologous or allogeneic tumor recognition using 100 IU IL-2/mL and 100 IU IL-15/mL; or using 100 IU IL-7/mL combined with 100 IU IL-15/mL. […]
# TIL [1] = tested on: TIL
# Method: TIL were seeded at 10^4/well in medium with 10% human serum added 24 h later and reduced cytokine concentrations (IL-2 at 100 IU/mL, IL-15 at 100 IU/mL). Supernatants were tested for IFN-γ production with the Human IFN-γ ELISA basic kit (HRP) (Mabtech, 3420-1H-6) according to the manufacturer's instructions. The assay can also be performed using IL-7 at 100 IU/mL and 100 IU IL-15/mL).
# MHC class I responses were blocked using mAb clone w6/32 (mouse IgG2a) at 10 μg/mL, anti-HLA-DR clone L243 (mouse IgG2a) at 10 μg/mL, anti-HLA-DP clone B7/21 (mouse IgG3) at 10 μg/mL, anti-CD1d clone CD1d42 (mouse IgG1) at 10 μg/mL. Isotype control antibodies included mouse IgG2a and mouse IgG1 at 10 μg/mL. MR1 responses were blocked using the mAb clone 26.5 (mouse IgG2a) at 10 μg/mL. All antibodies are commercially available.
# TIL [2] = test: Peptide recognition assay in TIL (IFN-γ ELISA / IL-17 in supernatant, 7 days); assay type: cell-based, human; design: IFN-γ production, TIL: unit not given here; conditions: for IFN-γ production, TIL: 10e4 TIL/well co-cultured with the peptide for 7 days, supernatant tested; for Pancreatic TIL D1599 IFN-y / Pancreatic TILD1599 IL 17: Pancreatic TIL D1599; for IFN-γ production (in words): positive controls
# Method: (§1) Peptides from tumor-associated antigens (TAAs), listed in Table 5 were placed at 1 ug/well in duplicates using anti-CD3 at 30 ng/mL as well as PHA at 5 μg/mL as positive controls.
# (§2) The differences in TIL versus PBMCs can also be defined by peptide reactivity. 10e^4 TIL or 10e^4 PBMC/well were co-cultured with the peptides listed in Table 11 below for 7 days and the supernatants were tested for IFN-γ production.
# PBMCs = test: Peptide recognition assay in PBMCs (IFN-γ in supernatant, 7 days); assay type: cell-based, human; conditions: for IFN-γ production, PBMCs: 10e4 PBMC/well co-cultured with the peptide for 7 days, supernatant tested; for PBMCs IFN-y: PBMCs harvested same day as skin lesion
# Method: as §1, §2
# [3] = tested on: Posterior skin lesion T-cells; test: Peptide recognition by T-cells expanded from skin lesions (IFN-γ, 7 days); assay type: cell-based, human; conditions: T-cells expanded from skin lesion of patient with solid cancer
# Method: as §1
# [4] = TIL that reacted against Human U11/U12 snRNP 35 kDa protein (81-90) tailored for HLA-B3501, + anti-ABC
# [5] = TIL that reacted against Human U11/U12 snRNP 35 kDa protein (81-90) tailored for HLA-B3501, + anti-DR
# [6] = TIL that reacted against Human U11/U12 snRNP 35 kDa protein (81-90) tailored for HLA-B3501, no blocking antibody
# [7] = TIL that reacted against SARS-CoV-2 spike (212-220) tailored for HLA-B3501, + anti-ABC
# [8] = TIL that reacted against SARS-CoV-2 spike (212-220) tailored for HLA-B3501, + anti-DR
# [9] = TIL that reacted against SARS-CoV-2 spike (212-220) tailored for HLA-B3501, no blocking antibody
compound,measurement,setting,value
Cc1oncc1C(=O)Nc1ccc(C(F)(F)F)cc1 [Leflunomide],PANC-1 recognition by γδ+ TIL after pretreatment of PANC-1 cells,PANC-1,not changed
COc1cccc2c1C(=O)c1c(O)c3c(c(O)c1C2=O)C[C@@](O)(C(=O)CO)C[C@@H]3O[C@H]1C[C@H](N)[C@H](O)[C@H](C)O1 [doxorubicin],PANC-1 recognition by γδ+ TIL after pretreatment of PANC-1 cells,PANC-1,not changed
LP(V)RDLPQGF,IFN-γ Production,TIL [1]; [4],2062.87
same,IL-17 Production,TIL [1]; [4],12.68
same,IFN-γ Production,TIL [1]; [5],1974.19
same,IL-17 Production,TIL [1]; [5],257.46
same,IFN-γ Production,TIL [1]; [6],2611.08
same,IL-17 Production,TIL [1]; [6],238.70
same,IFN-γ Production,TIL [1]; [7],138.58
same,IL-17 Production,TIL [1]; [7],0.00
same,IFN-γ Production,TIL [1]; [8],1057.65
same,IL-17 Production,TIL [1]; [8],428.92
same,IFN-γ Production,TIL [1]; [9],1457.59
same,IL-17 Production,TIL [1]; [9],462.99
LP(V)RDLVTGF,IFN-γ Production,TIL [1]; [4],1908.56
same,IL-17 Production,TIL [1]; [4],81.91
same,IFN-γ Production,TIL [1]; [5],1509.64
same,IL-17 Production,TIL [1]; [5],444.01
same,IFN-γ Production,TIL [1]; [6],2444.61
same,IL-17 Production,TIL [1]; [6],330.14
same,IFN-γ Production,TIL [1]; [7],879.62
same,IL-17 Production,TIL [1]; [7],0.00
same,IFN-γ Production,TIL [1]; [8],1289.42
same,IL-17 Production,TIL [1]; [8],420.07
same,IFN-γ Production,TIL [1]; [9],1230.50
same,IL-17 Production,TIL [1]; [9],372.84
"OKT3: anti-CD3 directed antibody crosslinking the T-cell receptor, 30 ng/ml from Biolegend or Human Cell [reference compound]","IFN-γ production, TIL",TIL [2],0
same,Pancreatic TIL D1599 IFN-y,TIL [2],200 pg/mL
same,Pancreatic TILD1599 IL 17,TIL [2],0 pg/mL
same,IFN-γ production (in words),TIL [2]; TIL D1599,Strong IFN-γ production
same,"IFN-γ production, PBMCs",PBMCs,63
same,PBMCs IFN-y,PBMCs; first PBMCs column,0.0 pg/ml/7 days
same,PBMCs IFN-y,PBMCs; second PBMCs column,0.0 pg/ml/7 days
same,Posterior skin lesion T-cells IFN-y,[3],27.0 pg/ml/7 days
same,IFN-γ Production,TIL [1]; [6],3333.24
same,IL-17 Production,TIL [1]; [6],417.70
same,IFN-γ Production,TIL [1]; [9],2540.06
same,IL-17 Production,TIL [1]; [9],305.99
TPLPVTDASSASTGH,"IFN-γ production, TIL",TIL [2],0
same,"IFN-γ production, PBMCs",PBMCs,0
TPLPVTDNSSASTGD,"IFN-γ production, TIL",TIL [2],0
same,"IFN-γ production, PBMCs",PBMCs,0
TPLPVTDTSSASTGD,"IFN-γ production, TIL",TIL [2],0
same,"IFN-γ production, PBMCs",PBMCs,0
TPLPVTDTSSASTGH,"IFN-γ production, TIL",TIL [2],0
same,"IFN-γ production, PBMCs",PBMCs,0
TTPLPVTIPSSASSG,"IFN-γ production, TIL",TIL [2],0
same,"IFN-γ production, PBMCs",PBMCs,0
TTPLPVTSPSSASSG,"IFN-γ production, TIL",TIL [2],0
same,"IFN-γ production, PBMCs",PBMCs,0
VTDASSASTGH,"IFN-γ production, TIL",TIL [2],0
same,"IFN-γ production, PBMCs",PBMCs,0
VTDTSSASTGH,"IFN-γ production, TIL",TIL [2],0
same,"IFN-γ production, PBMCs",PBMCs,0
WAVRPQDLDTCDPRQ,"IFN-γ production, TIL",TIL [2],0
same,"IFN-γ production, PBMCs",PBMCs,0
YEQLDVLKHKLDELY,"IFN-γ production, TIL",TIL [2],0
same,"IFN-γ production, PBMCs",PBMCs,0
YKLVVVGAAGVGKSALT,"IFN-γ production, TIL",TIL [2],0
same,"IFN-γ production, PBMCs",PBMCs,0
YKLVVVGACGVGKSALT,"IFN-γ production, TIL",TIL [2],0
same,"IFN-γ production, PBMCs",PBMCs,0
YKLVVVGADGVGKSALT,"IFN-γ production, TIL",TIL [2],0
same,"IFN-γ production, PBMCs",PBMCs,0
YKLVVVGAGGVGKSALT,"IFN-γ production, TIL",TIL [2],0
same,"IFN-γ production, PBMCs",PBMCs,0
YKLVVVGARGVGKSALT,"IFN-γ production, TIL",TIL [2],0
same,"IFN-γ production, PBMCs",PBMCs,0
YKLVVVGASGVGKSALT,"IFN-γ production, TIL",TIL [2],0
same,"IFN-γ production, PBMCs",PBMCs,0
YKLVVVGAVGVGKSALT,"IFN-γ production, TIL",TIL [2],0
same,"IFN-γ production, PBMCs",PBMCs,0
"phytohemagglutinin [PHA, reference compound]","IFN-γ production, TIL",TIL [2],1336
same,Pancreatic TIL D1599 IFN-y,TIL [2],417 pg/mL
same,Pancreatic TILD1599 IL 17,TIL [2],4 pg/mL
same,IL-17 production (in words),"TIL [2]; positive control, TIL D1599",only limited amount of IL-17 production
same,IFN-γ production (in words),TIL [2]; TIL D1599,Strong IFN-γ production
same,"IFN-γ production, PBMCs",PBMCs,71
same,PBMCs IFN-y,PBMCs; first PBMCs column,165.7 pg/ml/7 days
same,PBMCs IFN-y,PBMCs; second PBMCs column,165.7 pg/ml/7 days
same,Posterior skin lesion T-cells IFN-y,[3],901.0 pg/ml/7 days
